Values quoted from earlier work as cited in PMC9814429, “First-in-human phase I dose-escalation and dose-expansion trial of the selective MEK inhibitor HL-085 in patients with advanced melanoma harboring NRAS mutations” (BMC Medicine, 2023).

System: NRAS mutant melanoma
Design: method as in PMID 28284557
Details: phase 3, NRAS mutant melanoma

Cn1cnc2c(F)c(Nc3ccc(Br)cc3F)c(C(=O)NOCCO)cc21 [binimetinib]
DCR: 58%
ORR: 15%
PFS: 2.8 months
